Source: patent publication US11591288B2, “Compositions and methods for treating atherosclerotic cardiovascular disease” (GAVISH-GALILEE BIO APPLICATIONS LTD., priority 2017, dated 2023)

What was measured:
HDL = HDL surface polarity, Laurdan General Polarization (Gp) assay; set-up: species or system human; conditions: HDL 100 μg/ml, lyso-DGTS 0-100 μg/ml
Procedure: The fluorescence emission spectra of Laurdan were obtained using at excitation/emission 340/400-520 nm. The value of Gp of Laurdan was calculated using the formula: Gp=(I435−I490)/(I435+I490). Each experiment was repeated separately at least three times. *p<0.05, ***p<0.0001 related to the control (HDL without lyso-DGTS). Statistics were analyzed using T-test Graphpad prism 5 software.
HDL particles are plurimolecular, quasi-spherical or discoid, pseudomicellar complexes predominantly composed of polar lipids solubilized by apolipoproteins. In order to determine a possible interaction between lyso-DGTS and the HDL lipid core, the Laurdan General Polarization (Gp) assay was used. […] This interaction may cause a change in its physical state and lipid core polarity and thus affect its functionality.

rePON1 [1] = experiment: rePON1 lactonase activity (dihydrocoumarin assay) after incubation with lyso-DGTS; assay type: biochemical; conditions: for rePON1 lactonase activity: 2 h incubation, 37° C., 3.00 units without lyso-DGTS
Procedure: To 200 μl of rePON1 solution (5 μg/ml) in Tris-HCl buffer pH=8.4 was added 1 μl of lyso-DGTS dissolved in dimethyl sulfoxide (DMSO) to a final concentration of 1, 5, 10, 50, and 100 μg/ml. 1 μl DMSO was added to the control rePON1 solution. The mixtures were incubated at 37° C. for 2, 4, 24 or 48 h.
10 μl from each solution were taken to a UV 96-well microplate containing 90 μl Tris-HCL buffer pH=8.4 with 1 mM CaCl2 (activity buffer) in each well. Then 100 μl dihydrocoumarin, 2 mM in the activity buffer was added (prepared from a stock of 100 mM dihydrocoumarin in DMSO). Dihydrocoumarine hydrolysis rate was measured at 270 nm, once in 25 seconds for 15 minutes, using SpectraMax M2 Reader. Non-enzymatic hydrolysis of dihydrocoumarin was subtracted from the total rate of hydrolysis. One unit of lactonase activity was equal to the hydrolysis of 1 μmol of dihydrocoumarin/min.
The effect of lyso-DGTS on lactonase and arylesterase activities of rePON1 was examined. rePON1 (5 μg/ml in Tris buffer pH=8.4) was incubated with different concentrations of lyso-DGTS for 2, 4, 24, and 48 h at 37° C., and its lactonase and aryesterase activities were measured using dihydrocoumarin and phenyl acetate assays, respectively.

rePON1 [2] = experiment: rePON1-lyso-DGTS interaction, Trp fluorescence quenching; assay type: binding
Procedure: To 200 μl rePON1 (50 μg/ml=1.16 μM) solution in black 96-well plate wells was added lyso-DGTS at various concentration (0, 1, 5, 10, 25, 50, 75, and 100 μg/ml). The solutions were incubated for 2 h at 25° C. or 37° C. Fluorescence measurements were performed with an Infinite M200 PRO fluorescence spectrophotometer (Tecan) with emission spectra recorded from 320 to 450 nm at an excitation wavelength of 290 nm.
The effect of lyso-DGTS on rePON1 can result from a specific interaction between the lipid and the enzyme which was studied using Trp fluorescence quenching method. […] (FIG. 3A) and 37° C. (FIG. 3B) in the 300-450 nm range with an excitation wavelength of 290 nm. Lyso-DGTS quenched the fluorescence of rePON1 in a dose dependent manner at both temperatures.
Quenching pathways can be described by the Stern-Volmer equation (eq. 1):
[formula] where F0 and F are the fluorescence intensities in the absence and presence of quencher (lyso-DGTS), respectively, Ksv is the Stern-Volmer quenching constant, and [Q] is the quencher concentration (M).
The binding constant and binding sites were calculated using (eq. 2):
[formula] where Ka is the binding constant, reflecting the degree of interaction between rePON1 and lyso-DGTS, and n is the number of binding sites specifying the number of lyso-DGTS molecules bound to a rePON1. […] (2.377×10^3 M^−1; FIG. 4C). The values obtained for n were not affected by the temperature and were equal to ˜1 (Table 4). The thermodynamic parameters: enthalpy (ΔH), entropy (ΔS), and free energy (ΔG) were calculated to characterize the type of rePON1-lyso-DGTS interaction.

## CC/C=C\C/C=C\C/C=C\C/C=C\C/C=C\CCCC(=O)OCC(O)COCCC(C(=O)[O-])[N+](C)(C)C (stereo not shown) [lyso-DGTS, lyso-diacylglyceryltrimethylhornmoserine]
HDL
  effect on HDL Gp values (Laurdan): significantly decreased the HDL Gp values at a dose dependent manner at 20, 50, and 100 μg/ml
rePON1 [1]; 1 μg/ml lyso-DGTS
  rePON1 lactonase activity: 4.05 units
  rePON1 lactonase activity preserved after incubation for 48 h: 9%
rePON1 [1]; 5 μg/ml lyso-DGTS
  rePON1 lactonase activity: 5.73 units
  rePON1 lactonase activity preserved after incubation for 48 h: 33%
rePON1 [1]; 10 μg/ml lyso-DGTS
  rePON1 lactonase activity: 8.10 units
  rePON1 lactonase activity preserved after incubation for 48 h: 49%
rePON1 [1]; 50 μg/ml lyso-DGTS
  rePON1 lactonase activity: 11.61 units
  rePON1 lactonase activity preserved after incubation for 48 h: 69%
rePON1 [1]; 100 μg/ml lyso-DGTS
  rePON1 lactonase activity: 12.7 units
  rePON1 lactonase activity preserved after incubation for 48 h: 66%
rePON1 [1]; in buffer solution, abolished after 48 h without lyso-DGTS
  time for which rePON1 lactonase activity is stabilized and preserved: at least 48 h
rePON1 [2]; 25° C.
  Stern-Volmer quenching constant Ksv, rePON1: (1.18±0.13)×10^+4 M^−1
rePON1 [2]; 37° C.
  Stern-Volmer quenching constant Ksv, rePON1: (0.93±0.03)×10^+4 M^−1
rePON1 [2]; 298 K (25° C.)
  Binding constant Ka, lyso-DGTS-rePON1: 10520 M⁻¹
rePON1 [2]; 310 K (37° C.)
  Binding constant Ka, lyso-DGTS-rePON1: 2377 M⁻¹
